The values below come from ChEMBL document CHEMBL1146802, “Glyco-optimization of aminoglycosides: new aminoglycosides as novel anti-infective agents” (2004).

What all share (type): functional
The test system of experiment [1] is Pseudomonas aeruginosa. The experiment in a line: In vitro inhibitory activity against Pseudomonas aeruginosa ATCC 27853.
In experiment [2] the test system is Enterococcus faecalis. Briefly: In vitro inhibitory activity against Enterococcus faecalis ATCC 29212.
In experiment [3] the test system is Escherichia coli. The experiment in a line: In vitro inhibitory activity against Escherichia coli ATCC 25922.
Experiment [4] has as its system Staphylococcus aureus. The experiment in a line: In vitro inhibitory activity against Staphylococcus aureus MRSA 33591.
The test system of experiment [5] is Staphylococcus aureus. Briefly: In vitro inhibitory activity against Staphylococcus aureus ATCC 29213.
Experiment [6] relates to Pseudomonas aeruginosa. The experiment in a line: In vitro inhibitory activity against Pseudomonas aeruginosa PAO-1.
Experiment [7] deals with Pseudomonas aeruginosa. Briefly: In vitro inhibitory activity against Pseudomonas aeruginosa ATCC 35151.
Experiment [8] has as its system Enterococcus faecalis. The experiment in a line: In vitro inhibitory activity against Enterococcus faecalis ATCC 29212; Value ranges from 8-32 ug/mL.
In experiment [9] the test system is Escherichia coli. The experiment in a line: In vitro inhibitory activity against Escherichia coli ATCC 25922; Value ranges from 0.25-1 ug/mL.
Setting [10] is: Pseudomonas aeruginosa, ATCC 27853, read-out: MIC.
[11] abbreviates: Enterococcus faecalis, ATCC 29212, read-out: MIC.
The mark [12] stands for this setting: Escherichia coli, ATCC 25922, read-out: MIC.
Where [13] appears, read: Staphylococcus aureus, ATCC 29213, read-out: MIC.
Setting [14] is: Pseudomonas aeruginosa, read-out: MIC.
[15] abbreviates: Pseudomonas aeruginosa, ATCC 35151, read-out: MIC.

As a reminder, the MIC is the least concentration at which growth counts as inhibited.

Structures are written as SMILES. Values after ≈ are worked out from the molar mass of the structure shown.

For the compound `CC1OC(OC2C(N)CC(N)C(OC3OC(CN)C(O)CC3N)C2O)C(N)C(O)C1O` (centres undefined), the minimal inhibitory concentration (MIC) in the experiment on Pseudomonas aeruginosa [1] (setting [10]), in the experiment with Enterococcus faecalis [2] (setting [11]), in the experiment with Escherichia coli [3] (setting [12]), in the experiment with Staphylococcus aureus [4] and with Staphylococcus aureus [5] (setting [13]) was greater than 64 µg/mL throughout.
In the case of `NCC1OC(OC2C(N)CC(N)C(OC3OC(CO)C(N)C(O)C3N)C2O)C(N)CC1O` (stereo in doubt; form 2), the MIC is 2 µg/mL (≈ 4.29 µM) in the experiment with Pseudomonas aeruginosa [1]; 1 µg/mL (≈ 2.14 µM) against Pseudomonas aeruginosa [6]; 32 µg/mL (≈ 68.6 µM) in the experiment on Enterococcus faecalis [2] (setting [11]); 2 µg/mL (≈ 4.29 µM) in the experiment on Escherichia coli [3]; greater than 64 µg/mL with Staphylococcus aureus [4]; 1 µg/mL (≈ 2.14 µM) in the experiment with Staphylococcus aureus [5]. In the experiment with Pseudomonas aeruginosa [7], this compound registered an MIC of 1 µg/mL (≈ 2.14 µM).
In the case of `NC[C@@H]1O[C@H](O[C@H]2[C@H](O)[C@H](O[C@H]3O[C@@H](CO)[C@@H](O)[C@H](O)[C@@H]3O)[C@H](N)C[C@H]2N)[C@@H](N)C[C@@H]1O`, the MIC in the experiment on Pseudomonas aeruginosa [1] (setting [10]) was 16 µg/mL (≈ 34.2 µM); in the experiment with Pseudomonas aeruginosa [6] (setting [14]), 8 µg/mL (≈ 17.1 µM); with Enterococcus faecalis [2] (setting [11]) it was greater than 64 µg/mL; in the experiment on Escherichia coli [3] (setting [12]), 32 µg/mL (≈ 68.3 µM); in the experiment on Staphylococcus aureus [4] it was greater than 64 µg/mL; in the experiment on Staphylococcus aureus [5] (setting [13]) it was 32 µg/mL (≈ 68.3 µM). Besides, the MIC in the experiment on Pseudomonas aeruginosa [7] (setting [15]) is 16 µg/mL (≈ 34.2 µM).
Take `CC1CC(N(C)C)C(O)C(OC2C(N)CC(N)C(OC3OC(CN)C(O)CC3N)C2O)O1` (centres undefined): the MIC in the experiment with Pseudomonas aeruginosa [1] (setting [10]) is greater than 64 µg/mL; in the experiment with Pseudomonas aeruginosa [6] (setting [14]), 64 µg/mL (≈ 138 µM); with Enterococcus faecalis [2] (setting [11]), greater than 64 µg/mL; with Escherichia coli [3] (setting [12]), 16 µg/mL (≈ 34.5 µM); with Staphylococcus aureus [4] it was greater than 64 µg/mL; in the experiment with Staphylococcus aureus [5] (setting [13]), 32 µg/mL (≈ 69 µM). Also, in the experiment with Pseudomonas aeruginosa [7] (setting [15]), the MIC stood at 32 µg/mL (≈ 69 µM).
Take `CC1OC(OC2C(N)CC(N)C(OC3OC(CN)C(O)CC3N)C2O)C(O)C(O)C1O` (centres undefined): the MIC in the experiment on Pseudomonas aeruginosa [1] (setting [10]), with Pseudomonas aeruginosa [6] (setting [14]), in the experiment on Enterococcus faecalis [2] (setting [11]), in the experiment on Escherichia coli [3] (setting [12]), in the experiment with Staphylococcus aureus [4] and in the experiment on Staphylococcus aureus [5] (setting [13]) was greater than 64 µg/mL in each case. Moreover, the MIC in the experiment with Pseudomonas aeruginosa [7] (setting [15]) is greater than 64 µg/mL.
In the case of `NCC1OC(OC2C(N)CC(N)C(OC3OC(CO)C(N)C(O)C3N)C2O)C(N)CC1O` (stereo in doubt; form 1), the MIC against Pseudomonas aeruginosa [1] was 32 µg/mL (≈ 68.6 µM); in the experiment with Pseudomonas aeruginosa [6], 16 µg/mL (≈ 34.3 µM); in the experiment on Enterococcus faecalis [2], greater than 64 µg/mL; in the experiment with Escherichia coli [3] it was 32 µg/mL (≈ 68.6 µM); against Staphylococcus aureus [5], 8 µg/mL (≈ 17.1 µM); in the experiment on Pseudomonas aeruginosa [7], 16 µg/mL (≈ 34.3 µM).
`NCC1OC(OC2C(N)CC(N)C(OC3OCC(O)C(O)C3N)C2O)C(N)CC1O` (centres undefined): the MIC in the experiment on Pseudomonas aeruginosa [1] (setting [10]) is 16 µg/mL (≈ 36.6 µM); in the experiment on Enterococcus faecalis [2] (setting [11]) it was greater than 64 µg/mL; in the experiment with Escherichia coli [3] (setting [12]) it was 8 µg/mL (≈ 18.3 µM); with Staphylococcus aureus [4], greater than 64 µg/mL; in the experiment with Staphylococcus aureus [5] (setting [13]) it was 16 µg/mL (≈ 36.6 µM).
For the compound `NC[C@H]1O[C@H](O[C@H]2[C@H](O)[C@@H](O[C@H]3O[C@H](CO)[C@@H](O)[C@H](N)[C@H]3O)[C@H](N)C[C@@H]2N)[C@H](N)C[C@@H]1O` [TOBRAMYCIN], the MIC is 0.5 µg/mL (≈ 1.07 µM) in the experiment on Pseudomonas aeruginosa [1] (setting [10]); 0.5 µg/mL (≈ 1.07 µM) in the experiment with Pseudomonas aeruginosa [6] (setting [14]); greater than 32 µg/mL with Enterococcus faecalis [8]; greater than 64 µg/mL in the experiment with Staphylococcus aureus [4]; 0.5 µg/mL (≈ 1.07 µM) in the experiment on Staphylococcus aureus [5] (setting [13]); 0.5 µg/mL (≈ 1.07 µM) with Pseudomonas aeruginosa [7] (setting [15]). In the experiment with Escherichia coli [9], the MIC is greater than 1 µg/mL.
For the compound `NCC1OC(OC2C(N)CC(N)C(OC3OCC(O)C(O)C3O)C2O)C(N)CC1O` (centres undefined), the MIC in the experiment on Pseudomonas aeruginosa [1] (setting [10]), in the experiment with Pseudomonas aeruginosa [6] (setting [14]), in the experiment with Enterococcus faecalis [2] (setting [11]), in the experiment with Escherichia coli [3] (setting [12]), with Staphylococcus aureus [4] and with Staphylococcus aureus [5] (setting [13]) was greater than 64 µg/mL throughout. The MIC in the experiment on Pseudomonas aeruginosa [7] (setting [15]) was greater than 64 µg/mL.
Take `NCC1OC(OC2C(N)CC(N)C(OC3OCC(O)C(N)C3O)C2O)C(N)CC1O` (stereo in doubt; 8u): the MIC against Pseudomonas aeruginosa [1], with Escherichia coli [3] and in the experiment on Staphylococcus aureus [5] was 2 µg/mL (≈ 4.57 µM) throughout.
As for `NCC1OC(OC2C(N)CC(N)C(OC3OC(CO)C(O)C(N)C3N)C2O)C(N)CC1O` (stereo in doubt; form 2), the MIC with Pseudomonas aeruginosa [1] was greater than 64 µg/mL; in the experiment with Enterococcus faecalis [2] (setting [11]), greater than 64 µg/mL; with Escherichia coli [3] (setting [12]), greater than 64 µg/mL; with Staphylococcus aureus [4], greater than 64 µg/mL; against Staphylococcus aureus [5] it was 64 µg/mL (≈ 137 µM).
On to `NCC1OC(OC2C(N)CC(N)C(OC3OCC(O)C(N)C3O)C2O)C(N)CC1O` (stereo in doubt; 8v), for which the MIC against Pseudomonas aeruginosa [1] is greater than 64 µg/mL; in the experiment with Enterococcus faecalis [2] (setting [11]), greater than 64 µg/mL; with Escherichia coli [3] it was greater than 64 µg/mL; against Staphylococcus aureus [4] it was greater than 64 µg/mL; in the experiment on Staphylococcus aureus [5], 32 µg/mL (≈ 73.1 µM).
Take `NCC1OC(OC2C(N)CC(N)C(OC3OC(CO)C(O)C(N)C3N)C2O)C(N)CC1O` (stereo in doubt; form 1): the minimum inhibitory concentration (MIC) stood at 2 µg/mL (≈ 4.29 µM) against Pseudomonas aeruginosa [1]; 1 µg/mL (≈ 2.14 µM) in the experiment on Pseudomonas aeruginosa [6] (setting [14]); 32 µg/mL (≈ 68.6 µM) against Enterococcus faecalis [2]; 1 µg/mL (≈ 2.14 µM) in the experiment on Staphylococcus aureus [5]; 1 µg/mL (≈ 2.14 µM) with Pseudomonas aeruginosa [7] (setting [15]).
Regarding `NCC1OC(OC2C(N)CC(N)C(OC3OC(CO)C(N)C(N)C3O)C2O)C(N)CC1O` (stereo in doubt; form 2), the MIC is 2 µg/mL (≈ 4.29 µM) against Pseudomonas aeruginosa [1]; 2 µg/mL (≈ 4.29 µM) against Pseudomonas aeruginosa [6]; 64 µg/mL (≈ 137 µM) in the experiment with Enterococcus faecalis [2]; 1 µg/mL (≈ 2.14 µM) in the experiment on Staphylococcus aureus [5]; 1 µg/mL (≈ 2.14 µM) in the experiment on Pseudomonas aeruginosa [7].
As for `NCC1OC(OC2C(N)CC(N)C(OC3OC(CO)C(N)C(N)C3O)C2O)C(N)CC1O` (stereo in doubt; form 1), the MIC in the experiment with Pseudomonas aeruginosa [1] was greater than 64 µg/mL; with Pseudomonas aeruginosa [6], greater than 64 µg/mL; in the experiment on Enterococcus faecalis [2] (setting [11]), greater than 64 µg/mL; against Staphylococcus aureus [4], greater than 64 µg/mL; in the experiment with Staphylococcus aureus [5], 32 µg/mL (≈ 68.6 µM); in the experiment with Pseudomonas aeruginosa [7], greater than 64 µg/mL.
On to `NCC1OC(OC2C(N)CC(N)C(OC3OC(CN)C(O)C(O)C3N)C2O)C(N)CC1O` (centres undefined), for which the MIC is 16 µg/mL (≈ 34.3 µM) in the experiment on Pseudomonas aeruginosa [1] (setting [10]); 8 µg/mL (≈ 17.1 µM) with Pseudomonas aeruginosa [6] (setting [14]); greater than 64 µg/mL with Enterococcus faecalis [2] (setting [11]); 32 µg/mL (≈ 68.6 µM) with Escherichia coli [3] (setting [12]); greater than 64 µg/mL with Staphylococcus aureus [4]; 8 µg/mL (≈ 17.1 µM) in the experiment on Staphylococcus aureus [5] (setting [13]). In the experiment with Pseudomonas aeruginosa [7] (setting [15]), the MIC was 16 µg/mL (≈ 34.3 µM).
